The numbers were not newly measured in US9603811B2, “Pharmaceutical compositions of carotenoid chylomicrons” (HEALTH-EVER BIOTECH CO. LTD, priority 2013, dated 2017), which cites them from elsewhere.

Read-outs that look alike come from different tables or passages of the source.

`CC(C)=CCC/C(C)=C/C=C/C(C)=C/C=C/C(C)=C/C=C/C=C(C)/C=C/C=C(C)/C=C/C=C(\C)CCC=C(C)C` [solanorubin]: the solubility in water result is listed as “practically insoluble in water”. The solubility in water result (listed as Solanorubin) is given as “insoluble in water”.
